Measured values published in US8101760B2, “Glucocorticoid receptor modulator and methods of use” (Eli Lilly and Company, priority 2007, dated 2012).

Tests used:
[1] = test system: LPS-stimulated TNF-α production in PMA-differentiated U937 cells; assay: GR-mediated transrepression: LPS-stimulated TNF-α production in PMA-differentiated U937 cells; assay type: cell-based; settings: Homo sapiens, U-937, mean of 6 determinations, read-out: EC50, inhibition of TNF-α expression
Protocol: 2. LPS-Stimulated TNF-α Production in PMA-Differentiated U937 Cells:
Human U937 pre-monocytic cells (ATCC Catalog #CRL-1593.2) are grown in complete RPMI 1640 medium (ATCC Catalog #30-2001) containing 10% fetal bovine serum (FBS). To allow monocytes to differentiate to adherent macrophages, U937 cells are washed in PBS (Calcium, magnesium-free) and resuspended in fresh RPMI medium containing 20 nM phorbol 12-myristate-13-acetate (PMA) overnight. After differentiation, test compounds are added to the cells in the 96-well plate at various concentrations ranging from about […] to 4.64 μM. 1-hour post treatment with test compound, LPS is added at final concentration of 100 ng/mL and the reaction mixture is incubated overnight.
TNF-α production is measured with an ELISA kit (R&D Systems, Inc., Minneapolis, Minn., U.S.A.) using standard techniques. Briefly, 25 μL cell-free supernatant is transferred to another 96-well plate and 75 μL of assay buffer is added. TNF-α is quantified by reading absorbance at 450 nm. A standard curve of absorbance versus TNF-α concentration is constructed and used to determine the concentration of TNF-α in experimental samples.

[2] = biological target: T1, human glucocorticoid receptor (GR) (Homo sapiens, UniProt P04150); assay: Nuclear hormone receptor functional modulation assay (GRE-luciferase, HEK293), GR; assay type: cell-based
T1 construct: expressed in transfected cells; host or cells: HEK293, transient transfection (Fugene), CMV promoter plasmid
T1 sequence (P04150 1-777): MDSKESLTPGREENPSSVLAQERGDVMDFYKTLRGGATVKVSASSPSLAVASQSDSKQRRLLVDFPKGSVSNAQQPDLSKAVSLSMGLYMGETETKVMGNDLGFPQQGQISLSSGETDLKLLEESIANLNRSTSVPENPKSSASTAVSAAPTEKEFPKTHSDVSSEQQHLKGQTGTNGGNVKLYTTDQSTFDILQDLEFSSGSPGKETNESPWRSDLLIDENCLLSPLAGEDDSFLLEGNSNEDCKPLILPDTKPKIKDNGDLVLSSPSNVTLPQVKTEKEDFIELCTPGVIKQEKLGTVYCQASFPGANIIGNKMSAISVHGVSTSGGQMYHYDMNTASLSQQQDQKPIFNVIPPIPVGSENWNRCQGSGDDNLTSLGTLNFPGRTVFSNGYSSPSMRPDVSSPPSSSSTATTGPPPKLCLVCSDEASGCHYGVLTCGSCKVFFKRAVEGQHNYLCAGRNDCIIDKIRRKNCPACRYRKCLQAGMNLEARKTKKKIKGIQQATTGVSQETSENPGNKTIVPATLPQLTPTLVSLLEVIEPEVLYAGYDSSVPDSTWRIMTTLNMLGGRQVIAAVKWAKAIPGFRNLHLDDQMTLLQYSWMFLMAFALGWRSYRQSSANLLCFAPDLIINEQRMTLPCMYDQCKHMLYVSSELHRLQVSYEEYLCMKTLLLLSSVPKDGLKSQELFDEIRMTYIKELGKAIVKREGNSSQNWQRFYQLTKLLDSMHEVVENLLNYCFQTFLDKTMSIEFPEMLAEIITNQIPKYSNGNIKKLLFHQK
Description: The solvents, reagents, and ligands employed in the functional assay are readily available from commercial sources, or can be prepared by one of ordinary skill in the art.
Human embryonic kidney HEK293 cells are transfected with steroid hormone receptor and reporter gene plasmids using Fugene™ (Roche Diganostics) transfection reagent. Briefly, the reporter plasmid containing two copies of probasin ARE (androgen response element 5′GGTTCTTGGAGTACT3′ (SEQ ID NO:1)) and TK(thymidine kinase) promoter upstream of the luciferase reporter cDNA, is transfected into HEK293 cells with a plasmid constitutively expressing human androgen receptor (AR) using viral CMV(cytomegalovirus) promoter. The reporter plasmid containing two copies of GRE (glucocorticoid response element 5′TGTACAGGATGTTCT′3 (SEQ ID NO:2)) and TK promoter upstream of the luciferase reporter cDNA is transfected with a plasmid constitutively expressing either human glucocorticoid receptor (GR), human mineralocorticoid receptor (MR), or human progesterone receptor (PR) using viral CMV promoter. Cells are transfected in T150 cm flasks in DMEM media with 5% charcoal-stripped Fetal Bovine Serum (FBS). […] In the antagonist mode for the assays, low concentrations of agonist for each respective receptor are added to the media (0.25 nM dexamethasone for GR, 0.3 nM of methyltrienolone for AR, 0.05 nM of promegestone for PR and 0.05 nM aldosterone for MR), and the ability of test compound to antagonize the agonist response is determined. After 24 hours of incubation with test compounds, cells are lysed and luciferase activity is determined using standard techniques.
Data are fitted to a four parameter-fit logistic curve fit to determine EC50 values. […] IC50 values may be determined similarly using antagonist mode assay data. Percent inhibitions may also be determined relative to the response in the presence of agonist alone, as described above.

## CC/C(=C1\c2ccc(Cl)cc2OCc2ncccc21)c1cccc(NS(C)(=O)=O)c1 [Compound (I), (E)-N-{3-[1-(8-Chloro-11H-10-oxa-1-aza-dibenzo[a,d]cyclohepten-5-ylidene)-propyl]-phenyl}-methanesulfonamide]
[1]
  EC50: ~30 nM
[2]; HEK293, partial agonist activity, read-out: maximal efficacy in inducing GR/GRE-mediated gene transcription (transactivation)
  Emax: < 50%
[2]; agonist mode, activating transcription, mean of 3
  EC50: 1.9 nM
[2]; percent efficacy at 10 μM relative to 100 nM dexamethasone, mean of 3
  GR % Eff.: 45.7%
